Reference: publication PMC8401933 (Molecules, 2021)

How the values were obtained:
Assay in all cases: KINOMEscan binding
ABL1-nonphosphorylated = biological target: T1, ABL1-nonphosphorylated (Homo sapiens, UniProt P00519); conditions: read-out: Percent Control
T1 construct: purchased Eurofins DiscoverX KINOMEscan

MAP3K2 = biological target: T2, MAP3K2 (Homo sapiens, UniProt Q9Y2U5); conditions: read-out: Percent Control
T2 construct: purchased Eurofins DiscoverX KINOMEscan

PAK6 = biological target: T3, PAK6 (Homo sapiens, UniProt Q9NQU5); conditions: read-out: Percent Control
T3 construct: purchased Eurofins DiscoverX KINOMEscan

YES = biological target: T4, YES (Homo sapiens, UniProt P07947); conditions: read-out: Percent Control
T4 construct: purchased Eurofins DiscoverX KINOMEscan

CDK7 = biological target: T5, CDK7 (Homo sapiens, UniProt P50613); conditions: read-out: Percent Control
T5 construct: purchased Eurofins DiscoverX KINOMEscan

ERK8 = biological target: T6, ERK8 (Homo sapiens, UniProt Q8TD08); conditions: read-out: Percent Control
T6 construct: purchased Eurofins DiscoverX KINOMEscan
T6 sequence (Q8TD08 whole entry): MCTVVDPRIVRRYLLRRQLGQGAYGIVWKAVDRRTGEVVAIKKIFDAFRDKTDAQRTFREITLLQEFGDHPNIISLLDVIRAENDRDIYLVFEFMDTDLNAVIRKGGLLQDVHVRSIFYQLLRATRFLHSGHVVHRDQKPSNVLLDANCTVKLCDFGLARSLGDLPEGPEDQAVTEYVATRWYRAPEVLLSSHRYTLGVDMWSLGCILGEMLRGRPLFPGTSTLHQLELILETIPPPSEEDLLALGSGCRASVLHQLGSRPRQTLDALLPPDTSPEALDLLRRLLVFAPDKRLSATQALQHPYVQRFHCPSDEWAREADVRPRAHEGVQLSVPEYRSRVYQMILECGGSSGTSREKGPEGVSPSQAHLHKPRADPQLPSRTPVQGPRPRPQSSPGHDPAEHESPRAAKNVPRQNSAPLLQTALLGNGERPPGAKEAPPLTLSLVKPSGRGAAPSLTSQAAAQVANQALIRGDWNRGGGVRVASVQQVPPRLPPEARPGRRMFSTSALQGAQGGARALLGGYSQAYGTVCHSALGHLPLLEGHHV

MAP3K4 = biological target: T7, MAP3K4 (Homo sapiens, UniProt Q9Y6R4); conditions: read-out: Percent Control
T7 construct: purchased Eurofins DiscoverX KINOMEscan

ERK5 = biological target: T8, ERK5 (Homo sapiens, UniProt Q13164); conditions: read-out: Percent Control
T8 construct: purchased Eurofins DiscoverX KINOMEscan
T8 sequence (Q13164 whole entry): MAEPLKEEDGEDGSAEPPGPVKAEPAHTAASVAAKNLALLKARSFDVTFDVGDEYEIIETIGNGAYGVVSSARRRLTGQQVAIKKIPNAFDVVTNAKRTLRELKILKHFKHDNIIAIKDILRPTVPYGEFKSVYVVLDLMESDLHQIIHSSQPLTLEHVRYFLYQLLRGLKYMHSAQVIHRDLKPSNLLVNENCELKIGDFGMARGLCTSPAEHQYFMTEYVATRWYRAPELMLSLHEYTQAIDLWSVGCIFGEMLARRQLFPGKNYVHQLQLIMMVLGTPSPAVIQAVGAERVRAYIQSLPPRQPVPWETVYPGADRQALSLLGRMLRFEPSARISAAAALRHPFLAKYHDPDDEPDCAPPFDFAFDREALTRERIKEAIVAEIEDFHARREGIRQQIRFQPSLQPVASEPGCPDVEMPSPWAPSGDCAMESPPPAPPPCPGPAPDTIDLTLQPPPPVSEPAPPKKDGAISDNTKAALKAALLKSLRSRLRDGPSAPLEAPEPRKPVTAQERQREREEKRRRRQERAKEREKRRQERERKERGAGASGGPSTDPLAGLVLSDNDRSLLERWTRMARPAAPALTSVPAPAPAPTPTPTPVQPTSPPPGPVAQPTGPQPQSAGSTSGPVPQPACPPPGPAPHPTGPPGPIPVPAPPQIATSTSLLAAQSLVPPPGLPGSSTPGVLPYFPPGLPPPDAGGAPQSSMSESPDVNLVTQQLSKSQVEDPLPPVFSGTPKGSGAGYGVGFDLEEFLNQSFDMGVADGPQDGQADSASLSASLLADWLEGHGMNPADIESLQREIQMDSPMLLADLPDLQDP

MARK1 = biological target: T9, MARK1 (Homo sapiens, UniProt Q9P0L2); conditions: read-out: Percent Control
T9 construct: purchased Eurofins DiscoverX KINOMEscan

EPHA2 = biological target: T10, EPHA2 (Homo sapiens, UniProt P29317); conditions: read-out: Percent Control
T10 construct: purchased Eurofins DiscoverX KINOMEscan

[1] = biological target: T11, RSK4(Kin.Dom.1-N-terminal) (Homo sapiens, UniProt Q9UK32); conditions: read-out: Percent Control
T11 construct: RSK4(Kin.Dom.1-N-terminal); purchased Eurofins DiscoverX KINOMEscan

BRAF(V600E) = biological target: T12, BRAF(V600E) (Homo sapiens, UniProt P15056, V600E); conditions: read-out: Percent Control
T12 construct: purchased Eurofins DiscoverX KINOMEscan

EPHA3 = biological target: T13, EPHA3 (Homo sapiens, UniProt P29320); conditions: read-out: Percent Control
T13 construct: purchased Eurofins DiscoverX KINOMEscan
T13 sequence (P29320 21-983): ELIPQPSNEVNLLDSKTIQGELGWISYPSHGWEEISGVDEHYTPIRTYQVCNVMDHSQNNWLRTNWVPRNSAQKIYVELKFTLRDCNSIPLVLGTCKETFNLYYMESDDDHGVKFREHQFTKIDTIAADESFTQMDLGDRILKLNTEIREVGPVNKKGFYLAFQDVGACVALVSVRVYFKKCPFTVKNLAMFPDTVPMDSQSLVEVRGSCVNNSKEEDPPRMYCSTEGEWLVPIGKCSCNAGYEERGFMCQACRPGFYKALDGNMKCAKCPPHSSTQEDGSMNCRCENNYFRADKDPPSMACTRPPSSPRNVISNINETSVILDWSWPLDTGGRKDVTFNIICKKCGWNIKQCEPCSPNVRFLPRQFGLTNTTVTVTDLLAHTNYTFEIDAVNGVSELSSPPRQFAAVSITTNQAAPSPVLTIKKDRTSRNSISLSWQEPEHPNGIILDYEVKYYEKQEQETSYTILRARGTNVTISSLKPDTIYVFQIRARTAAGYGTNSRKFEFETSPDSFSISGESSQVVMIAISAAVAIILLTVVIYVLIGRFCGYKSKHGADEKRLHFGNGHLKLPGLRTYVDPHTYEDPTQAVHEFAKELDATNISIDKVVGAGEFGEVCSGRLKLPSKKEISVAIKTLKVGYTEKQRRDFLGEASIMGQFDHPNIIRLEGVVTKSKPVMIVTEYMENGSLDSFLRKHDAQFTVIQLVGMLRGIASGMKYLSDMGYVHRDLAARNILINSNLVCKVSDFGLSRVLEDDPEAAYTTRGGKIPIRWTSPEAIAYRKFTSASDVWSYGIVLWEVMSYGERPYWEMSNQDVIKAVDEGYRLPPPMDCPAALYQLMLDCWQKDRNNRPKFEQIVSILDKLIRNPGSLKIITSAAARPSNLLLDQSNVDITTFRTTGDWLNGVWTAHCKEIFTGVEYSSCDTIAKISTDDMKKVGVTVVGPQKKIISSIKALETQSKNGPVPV

CDK5 = biological target: T14, CDK5 (Homo sapiens, UniProt Q00535); conditions: read-out: Percent Control
T14 construct: purchased Eurofins DiscoverX KINOMEscan

SGK3 = biological target: T15, SGK3 (Homo sapiens, UniProt Q96BR1); conditions: read-out: Percent Control
T15 construct: purchased Eurofins DiscoverX KINOMEscan
T15 sequence (Q96BR1 whole entry): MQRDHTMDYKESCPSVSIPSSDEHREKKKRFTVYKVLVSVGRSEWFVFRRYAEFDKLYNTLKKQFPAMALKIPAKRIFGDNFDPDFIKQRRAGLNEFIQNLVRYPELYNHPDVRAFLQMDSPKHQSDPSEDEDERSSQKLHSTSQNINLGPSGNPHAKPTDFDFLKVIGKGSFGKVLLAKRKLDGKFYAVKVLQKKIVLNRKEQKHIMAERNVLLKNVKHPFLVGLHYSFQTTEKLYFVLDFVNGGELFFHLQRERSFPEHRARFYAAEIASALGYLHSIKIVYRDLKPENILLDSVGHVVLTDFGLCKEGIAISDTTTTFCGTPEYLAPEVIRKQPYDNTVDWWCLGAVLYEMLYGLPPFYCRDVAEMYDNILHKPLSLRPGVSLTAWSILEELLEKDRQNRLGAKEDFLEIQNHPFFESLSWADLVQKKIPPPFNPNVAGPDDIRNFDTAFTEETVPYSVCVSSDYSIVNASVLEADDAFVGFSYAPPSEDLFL

TIE1 = biological target: T16, TIE1 (Homo sapiens, UniProt P35590); conditions: read-out: Percent Control
T16 construct: purchased Eurofins DiscoverX KINOMEscan

NLK = biological target: T17, NLK (Homo sapiens, UniProt Q9UBE8); conditions: read-out: Percent Control
T17 construct: purchased Eurofins DiscoverX KINOMEscan

AKT1 = biological target: T18, AKT1 (Homo sapiens, UniProt P31749); conditions: read-out: Percent Control
T18 construct: purchased Eurofins DiscoverX KINOMEscan

PKN1 = biological target: T19, PKN1 (Homo sapiens, UniProt Q16512); conditions: read-out: Percent Control
T19 construct: purchased Eurofins DiscoverX KINOMEscan

DCAMKL1 = biological target: T20, DCAMKL1 (Homo sapiens, UniProt O15075); conditions: read-out: Percent Control
T20 construct: purchased Eurofins DiscoverX KINOMEscan

CLK2 = biological target: T21, CLK2 (Homo sapiens, UniProt P49760); conditions: read-out: Percent Control
T21 construct: purchased Eurofins DiscoverX KINOMEscan

SRC = biological target: T22, SRC (Homo sapiens, UniProt P12931); conditions: read-out: Percent Control
T22 construct: purchased Eurofins DiscoverX KINOMEscan
T22 sequence (P12931 whole entry): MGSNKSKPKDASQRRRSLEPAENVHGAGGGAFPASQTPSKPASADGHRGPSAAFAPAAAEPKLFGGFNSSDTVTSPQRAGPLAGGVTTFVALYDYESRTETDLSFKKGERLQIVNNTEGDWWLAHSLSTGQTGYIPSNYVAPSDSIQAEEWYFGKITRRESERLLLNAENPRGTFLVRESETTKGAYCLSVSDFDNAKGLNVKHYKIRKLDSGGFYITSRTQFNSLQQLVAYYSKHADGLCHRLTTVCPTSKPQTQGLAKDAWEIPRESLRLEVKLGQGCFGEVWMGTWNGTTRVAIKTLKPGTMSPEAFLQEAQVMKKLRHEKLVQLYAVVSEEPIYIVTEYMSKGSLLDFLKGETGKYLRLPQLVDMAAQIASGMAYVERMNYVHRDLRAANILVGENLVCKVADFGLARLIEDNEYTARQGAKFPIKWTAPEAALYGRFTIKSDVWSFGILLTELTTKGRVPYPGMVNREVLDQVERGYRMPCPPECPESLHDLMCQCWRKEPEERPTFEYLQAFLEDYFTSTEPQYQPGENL

GAK = biological target: T23, GAK (Homo sapiens, UniProt O14976); conditions: read-out: Percent Control
T23 construct: purchased Eurofins DiscoverX KINOMEscan

TAK1 = biological target: T24, TAK1 (Homo sapiens, UniProt O43318); conditions: read-out: Percent Control
T24 construct: purchased Eurofins DiscoverX KINOMEscan

IKK-epsilon = biological target: T25, IKK-epsilon (Homo sapiens, UniProt Q14164); conditions: read-out: Percent Control
T25 construct: purchased Eurofins DiscoverX KINOMEscan

PLK2 = biological target: T26, PLK2 (Homo sapiens, UniProt Q9NYY3); conditions: read-out: Percent Control
T26 construct: purchased Eurofins DiscoverX KINOMEscan

[2] = biological target: T27, ABL1(M351T)-phosphorylated (Homo sapiens, UniProt P00519, M351T); conditions: read-out: Percent Control
T27 construct: purchased Eurofins DiscoverX KINOMEscan

TLK2 = biological target: T28, TLK2 (Homo sapiens, UniProt Q86UE8); conditions: read-out: Percent Control
T28 construct: purchased Eurofins DiscoverX KINOMEscan

MYO3A = biological target: T29, MYO3A (Homo sapiens, UniProt Q8NEV4); conditions: read-out: Percent Control
T29 construct: purchased Eurofins DiscoverX KINOMEscan

ARK5 = biological target: T30, ARK5 (Homo sapiens, UniProt O60285); conditions: read-out: Percent Control
T30 construct: purchased Eurofins DiscoverX KINOMEscan

CAMK1D = biological target: T31, CAMK1D (Homo sapiens, UniProt Q8IU85); conditions: read-out: Percent Control
T31 construct: purchased Eurofins DiscoverX KINOMEscan

BMPR1A = biological target: T32, BMPR1A (Homo sapiens, UniProt P36894); conditions: read-out: Percent Control
T32 construct: purchased Eurofins DiscoverX KINOMEscan

ACVR2B = biological target: T33, ACVR2B (Homo sapiens, UniProt Q13705); conditions: read-out: Percent Control
T33 construct: purchased Eurofins DiscoverX KINOMEscan
T33 sequence (Q13705 19-512): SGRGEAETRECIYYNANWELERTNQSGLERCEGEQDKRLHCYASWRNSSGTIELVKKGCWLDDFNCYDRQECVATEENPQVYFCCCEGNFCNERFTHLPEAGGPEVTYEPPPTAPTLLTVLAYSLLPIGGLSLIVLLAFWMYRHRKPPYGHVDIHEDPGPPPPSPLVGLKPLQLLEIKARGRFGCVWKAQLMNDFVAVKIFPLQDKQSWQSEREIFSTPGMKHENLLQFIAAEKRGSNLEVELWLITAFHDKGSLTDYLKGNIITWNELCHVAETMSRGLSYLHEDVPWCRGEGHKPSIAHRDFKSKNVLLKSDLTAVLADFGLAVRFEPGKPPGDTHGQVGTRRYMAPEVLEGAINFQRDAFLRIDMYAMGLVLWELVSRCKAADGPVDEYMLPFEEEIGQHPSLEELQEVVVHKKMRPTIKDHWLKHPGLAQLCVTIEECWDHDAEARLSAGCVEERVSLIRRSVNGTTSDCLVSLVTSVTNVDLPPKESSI

SLK = biological target: T34, SLK (Homo sapiens, UniProt Q9H2G2); conditions: read-out: Percent Control
T34 construct: purchased Eurofins DiscoverX KINOMEscan

[3] = biological target: T35, RPS6KA5(Kin.Dom.1-N-terminal) (Homo sapiens, UniProt O75582); conditions: read-out: Percent Control
T35 construct: RPS6KA5(Kin.Dom.1-N-terminal); purchased Eurofins DiscoverX KINOMEscan

GRK1 = biological target: T36, GRK1 (Homo sapiens, UniProt Q15835); conditions: read-out: Percent Control
T36 construct: purchased Eurofins DiscoverX KINOMEscan

SIK = biological target: T37, SIK (Homo sapiens, UniProt P57059); conditions: read-out: Percent Control
T37 construct: purchased Eurofins DiscoverX KINOMEscan

ROCK2 = ROCK2 (Homo sapiens, UniProt O75116); parameters: purchased Eurofins DiscoverX (KINOMEscan service); conditions: read-out: Percent Control
[4] = biological target: T38, ABL1(H396P)-phosphorylated (Homo sapiens, UniProt P00519, H396P); conditions: read-out: Percent Control
T38 construct: purchased Eurofins DiscoverX KINOMEscan

MTOR = biological target: T39, MTOR (Homo sapiens, UniProt P42345); conditions: read-out: Percent Control
T39 construct: purchased Eurofins DiscoverX KINOMEscan

FLT3(ITD,D835V) = tested on: FLT3(ITD,D835V); parameters: species or system human; conditions: 10 μM
PIK3CA(M1043I) = biological target: T40, PIK3CA(M1043I) (Homo sapiens, UniProt P42336, M1043I); conditions: read-out: Percent Control
T40 construct: purchased Eurofins DiscoverX KINOMEscan
T40 sequence (P42336 whole entry M1043I): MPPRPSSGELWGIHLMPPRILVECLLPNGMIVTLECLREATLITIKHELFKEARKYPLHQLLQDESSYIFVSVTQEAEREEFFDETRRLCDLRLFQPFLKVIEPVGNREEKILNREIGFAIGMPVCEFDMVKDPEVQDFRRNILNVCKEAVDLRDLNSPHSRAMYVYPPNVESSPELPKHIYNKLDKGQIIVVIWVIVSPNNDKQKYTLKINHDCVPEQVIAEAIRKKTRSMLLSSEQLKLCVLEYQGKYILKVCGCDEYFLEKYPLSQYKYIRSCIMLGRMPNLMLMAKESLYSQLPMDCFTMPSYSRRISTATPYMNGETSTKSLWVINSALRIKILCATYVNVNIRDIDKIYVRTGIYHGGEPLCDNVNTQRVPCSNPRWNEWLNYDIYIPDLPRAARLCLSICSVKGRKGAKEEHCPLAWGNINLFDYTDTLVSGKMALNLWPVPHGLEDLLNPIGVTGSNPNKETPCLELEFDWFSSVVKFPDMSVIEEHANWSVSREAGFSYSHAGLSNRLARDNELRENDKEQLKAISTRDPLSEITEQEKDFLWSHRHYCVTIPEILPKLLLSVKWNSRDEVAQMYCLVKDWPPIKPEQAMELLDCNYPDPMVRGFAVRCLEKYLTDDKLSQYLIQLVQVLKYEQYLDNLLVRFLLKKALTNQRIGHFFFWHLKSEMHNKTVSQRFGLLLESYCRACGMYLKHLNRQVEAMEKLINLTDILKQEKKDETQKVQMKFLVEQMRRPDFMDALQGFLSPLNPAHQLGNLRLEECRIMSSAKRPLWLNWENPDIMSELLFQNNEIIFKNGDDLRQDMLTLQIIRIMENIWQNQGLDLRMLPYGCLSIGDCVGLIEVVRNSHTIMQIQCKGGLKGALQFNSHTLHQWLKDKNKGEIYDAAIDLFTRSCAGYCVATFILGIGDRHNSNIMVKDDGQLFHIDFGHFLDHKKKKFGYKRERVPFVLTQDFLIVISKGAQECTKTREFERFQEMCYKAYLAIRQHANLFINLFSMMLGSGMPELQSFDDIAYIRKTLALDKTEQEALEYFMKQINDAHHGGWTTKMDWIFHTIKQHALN

TRKA = biological target: T41, TRKA (Homo sapiens, UniProt P04629); conditions: read-out: Percent Control
T41 construct: purchased Eurofins DiscoverX KINOMEscan

## CC(C)NC(=O)COc1cccc(-c2nc(Nc3ccc4[nH]ncc4c3)c3ccccc3n2)c1 [KD025, 2-(3-(4-((1H-indazol-5-yl)amino)quinazolin-2-yl)phenoxy)-N-isopropylacetamide]
ABL1-nonphosphorylated
  remaining binding at 10 µM: 78%
MAP3K2
  remaining binding at 10 µM: 95%
PAK6
  remaining binding at 10 µM: 100%
YES
  remaining binding at 10 µM: 71%
CDK7
  remaining binding at 10 µM: 76%
ERK8
  remaining binding at 10 µM: 93%
MAP3K4
  remaining binding at 10 µM: 83%
ERK5
  remaining binding at 10 µM: 100%
MARK1
  remaining binding at 10 µM: 100%
EPHA2
  remaining binding at 10 µM: 59%
[1]
  remaining binding at 10 µM: 93%
BRAF(V600E)
  remaining binding at 10 µM: 91%
EPHA3
  remaining binding at 10 µM: 75%
CDK5
  remaining binding at 10 µM: 83%
SGK3
  remaining binding at 10 µM: 79%
TIE1
  remaining binding at 10 µM: 63%
NLK
  remaining binding at 10 µM: 80%
AKT1
  remaining binding at 10 µM: 88%
PKN1
  remaining binding at 10 µM: 97%
DCAMKL1
  remaining binding at 10 µM: 79%
CLK2
  remaining binding at 10 µM: 51%
SRC
  remaining binding at 10 µM: 87%
GAK
  remaining binding at 10 µM: 10%
TAK1
  remaining binding at 10 µM: 68%
IKK-epsilon
  remaining binding at 10 µM: 70%
PLK2
  remaining binding at 10 µM: 94%
[2]
  remaining binding at 10 µM: 90%
TLK2
  remaining binding at 10 µM: 100%
MYO3A
  remaining binding at 10 µM: 94%
ARK5
  remaining binding at 10 µM: 100%
CAMK1D
  remaining binding at 10 µM: 100%
BMPR1A
  remaining binding at 10 µM: 89%
ACVR2B
  remaining binding at 10 µM: 91%
SLK
  remaining binding at 10 µM: 59%
[3]
  remaining binding at 10 µM: 100%
GRK1
  remaining binding at 10 µM: 64%
SIK
  remaining binding at 10 µM: 72%
ROCK2
  remaining binding at 10 µM: 0.05%
[4]
  remaining binding at 10 µM: 82%
MTOR
  remaining binding at 10 µM: 92%
FLT3(ITD,D835V)
  Percent Control: 28%
PIK3CA(M1043I)
  remaining binding at 10 µM: 48%
TRKA
  remaining binding at 10 µM: 61%
